Source: paper PMC9944328 (Nature Communications, 2023)
Values joined by “and” are separate entries in the source; they are usually repeats but may differ in a detail not shown here. Identical values can stand only once.

Molecular target: SSTR2 (Homo sapiens, UniProt P30874)
Assay: SSTRs Gi-mediated cAMP inhibition, GloSensor, HEK293, 5 μM forskolin, 15 min room temperature (SSTR2 wild-type);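 for Bottom (best-fit value): normalized to the maximal wild-type response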;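 for Bottom (best-fit): normalized to the maximal wild-type response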;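 for Span (best-fit value): normalized to the maximal wild-type response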;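 for Span (best-fit): normalized to the maximal wild-type response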;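 for Top (best-fit value): normalized to the maximal wild-type response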;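 for Top (best-fit): normalized to the maximal wild-type response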
Format: cell-based
Set-up: Best-fit Top, cAMP inhibition / Span, cAMP inhibition / Best-fit Bottom / Best-fit Top / Best-fit Span / Bottom / Span (best-fit value), cAMP inhibition / Top (best-fit value), cAMP inhibition: scale not given here
Conditions: for Best-fit Top, cAMP inhibition / Span, cAMP inhibition: octreotide
Method: The levels of the intracellular 3′, 5′-cyclic AMP (cAMP) were measured by the GloSensor cAMP assay (Promega) as described in the previous studies[28],[41] which has been widely used. The human full-length SSTRs and mutants were cloned into the pcDNA3.1+ vector with a HA signal sequence followed by a Flag tag at the N-terminus. HEK293 cells (ATCC, CRL-1573) were seeded into 6-well microplates at a density of 1.0 × 10^6 cells/well and cultured for 24 h at 37 °C with 5% CO2. Cells were then co-transfected with SSTR wild-type or mutants and GloSensor plasmids. After 24 h of transfection, the cells were dissociated with TrypLE™ Express Enzyme (1X) (Thermo Fisher Scientific) and collected by centrifugation at 500 × g for 5 min. Then the collected cells were suspended in Hank’s balanced salt solution [HBSS (Thermo Fisher Scientific)] supplemented with […] (YEASEN), and then the suspension cells were seeded into 96-well plates with 90 μl/well. After incubating at room temperature for 40 min, 5 μM forskolin and ligands diluted in HBSS were added to each well and the plates were incubated at room temperature for 15 min. […] were measured using the Synergy H1 microplate reader (BioTek) and the data presented are means of at least three independent experiments.

[1] = cAMP inhibition, SSTR2 WT-1 (run 1)
[2] = cAMP inhibition, SSTR2 WT-2 (run 2)
[3] = cAMP inhibition, SSTR2 WT-3 (run 3)
[4] = SSTR2 WT-1, run 1 (WT of each mutant's set)
[5] = SSTR2 WT-2, run 2 (WT of each mutant's set)
[6] = SSTR2 WT-3, run 3 (WT of each mutant's set)

SSTR2, sequence (P30874 whole entry): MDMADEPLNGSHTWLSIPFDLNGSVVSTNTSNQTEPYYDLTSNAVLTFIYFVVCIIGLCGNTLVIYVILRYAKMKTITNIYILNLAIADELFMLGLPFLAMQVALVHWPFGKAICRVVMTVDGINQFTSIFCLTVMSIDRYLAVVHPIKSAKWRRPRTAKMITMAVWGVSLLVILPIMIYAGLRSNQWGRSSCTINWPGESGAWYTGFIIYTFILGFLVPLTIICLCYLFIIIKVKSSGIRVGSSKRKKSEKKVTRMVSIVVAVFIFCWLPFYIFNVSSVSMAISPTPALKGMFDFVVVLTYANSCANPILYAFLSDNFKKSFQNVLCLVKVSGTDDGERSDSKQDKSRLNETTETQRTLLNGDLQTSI

## C[C@@H](O)[C@@H]1NC(=O)[C@H](CCCCN)NC(=O)[C@@H](Cc2c[nH]c3ccccc23)NC(=O)[C@H](Cc2ccccc2)NC(=O)[C@@H](NC(=O)[C@H](N)Cc2ccccc2)CSSC[C@@H](C(=O)N[C@H](CO)[C@@H](C)O)NC1=O [octreotide]
HEK293, Gi signaling, SSTR2 WT, n=6, read-out: Emax
  Emax: 100%
SSTR2, Fig. 1
  Activation potency level: nanomolar level
WT-1, run 1, batch of I284A
  Bottom (best-fit value): 6.42
  Span (best-fit value): 102.3
  Top (best-fit value): 108.8
WT-1, run 1, batch of P286A
  Bottom (best-fit value): 0.4925
  Span (best-fit value): 108.4
  Top (best-fit value): 108.9
WT-1, run 1, batch of S285A
  Bottom (best-fit value): -1.909
  Span (best-fit value): 108.3
  Top (best-fit value): 106.4
WT-1, run 1, batch of T194A
  Bottom (best-fit value): 5.269
WT-1, run 1, batch of T287A
  Bottom (best-fit value): 5.269
  Span (best-fit value): 95.18
  Top (best-fit value): 100.5
WT-1, run 1, batch of W188A
  LogEC50 (best-fit value): -10.06
  Span (best-fit value): 114.6
  Top (best-fit value): 120.5
WT-1 of D295A set
  Best-fit Bottom: -0.7512
  Best-fit Span: 96.76
  Best-fit Top: 96
WT-1 of F208A set
  Span (best-fit): 95.18
WT-1 of F265A set
  Bottom (best-fit): 9.705
  Top (best-fit): 105
WT-1 of F272A set
  Bottom (best-fit): 5.108
  Span (best-fit): 89.16
  Top (best-fit): 94.27
WT-1 of F294A set
  Best-fit Bottom: 5.269
  Best-fit Span: 95.18
  Best-fit Top: 100.5
WT-1 of K291A set
  Best-fit Bottom: 7.96
  Best-fit Span: 79.36
  Best-fit Top: 87.32
WT-1 of L290A set
  Best-fit Bottom: -1.909
  Best-fit Span: 108.3
  Best-fit Top: 106.4
WT-1 of N276A set
  Bottom (best-fit): 7.96
  Span (best-fit): 79.36
  Top (best-fit): 87.32
WT-1 of P220A set
  Bottom (best-fit): 21.28
  Span (best-fit): 73.55
  Top (best-fit): 94.83
WT-1 of S279A set
  Best-fit Bottom: 5.108
  Best-fit Span: 89.16
  Best-fit Top: 94.27
WT-1 of W269A set
  Bottom (best-fit): 6.42
  Span (best-fit): 102.3
  Top (best-fit): 108.8
WT-1 of Y302A set
  Best-fit Bottom: 6.42
  Best-fit Span: 102.3
  Best-fit Top: 108.8
WT-2, run 2, batch of I284A
  Bottom (best-fit value): -0.5171
  Span (best-fit value): 111.1
  Top (best-fit value): 110.6
WT-2, run 2, batch of P286A
  Bottom (best-fit value): 4.88
  LogEC50 (best-fit value): -10.01
  Span (best-fit value): 102.3
  Top (best-fit value): 107.2
WT-2, run 2, batch of S285A
  Bottom (best-fit value): 5.269
  Span (best-fit value): 95.18
  Top (best-fit value): 100.5
WT-2, run 2, batch of T194A
  Bottom (best-fit value): 2.714
WT-2, run 2, batch of T287A
  Bottom (best-fit value): -7.526
  Span (best-fit value): 120.1
  Top (best-fit value): 112.6
WT-2, run 2, batch of W188A
  Bottom (best-fit value): 4.88
  LogEC50 (best-fit value): -10.01
  Span (best-fit value): 102.3
  Top (best-fit value): 107.2
WT-2 of D295A set
  Best-fit Bottom: -0.7512
  Best-fit Span: 96.76
  Best-fit Top: 96
WT-2 of F208A set
  Span (best-fit): 79.83
WT-2 of F265A set
  Bottom (best-fit): 21.28
  Span (best-fit): 73.55
  Top (best-fit): 94.83
WT-2 of F272A set
  Bottom (best-fit): 5.269
  Span (best-fit): 95.18
  Top (best-fit): 100.5
WT-2 of F294A set
  Best-fit Bottom: 2.714
  Best-fit Span: 101.1
  Best-fit Top: 103.8
WT-2 of K291A set
  Best-fit Bottom: 0.9124
  Best-fit Span: 101.5
  Best-fit Top: 102.4
WT-2 of L290A set
  Best-fit Bottom: 5.269
  Best-fit Span: 95.18
  Best-fit Top: 100.5
WT-2 of N276A set
  Bottom (best-fit): 2.714
  Span (best-fit): 101.1
  Top (best-fit): 103.8
WT-2 of P220A set
  Bottom (best-fit): 2.714
  Span (best-fit): 101.1
  Top (best-fit): 103.8
WT-2 of S279A set
  Best-fit Bottom: -6.301
  Best-fit Span: 114.5
  Best-fit Top: 108.2
WT-2 of W269A set
  Bottom (best-fit): -0.5171
  Span (best-fit): 111.1
  Top (best-fit): 110.6
WT-2 of Y302A set
  Best-fit Bottom: -0.5171
  Best-fit Span: 111.1
  Best-fit Top: 110.6
WT-3, run 3, batch of I284A
  Bottom (best-fit value): 5.269
  Span (best-fit value): 95.18
  Top (best-fit value): 100.5
WT-3, run 3, batch of P286A
  Bottom (best-fit value): 0.3403
  Span (best-fit value): 101
  Top (best-fit value): 101.3
WT-3, run 3, batch of S285A
  Bottom (best-fit value): 0.3403
  Span (best-fit value): 101
  Top (best-fit value): 101.3
WT-3, run 3, batch of T194A
  Bottom (best-fit value): 9.705
WT-3, run 3, batch of T287A
  Bottom (best-fit value): 0.3403
  Span (best-fit value): 101
  Top (best-fit value): 101.3
WT-3, run 3, batch of W188A
  Bottom (best-fit value): 0.3403
  Span (best-fit value): 101
  Top (best-fit value): 101.3
WT-3 of D295A set
  Best-fit Bottom: 5.262
  Best-fit Span: 106.6
  Best-fit Top: 111.9
WT-3 of F208A set
  Span (best-fit): 108.3
WT-3 of F265A set
  Bottom (best-fit): 9.705
  Span (best-fit): 95.34
  Top (best-fit): 105
WT-3 of F272A set
  Bottom (best-fit): 21.28
  Span (best-fit): 73.55
  Top (best-fit): 94.83
WT-3 of F294A set
  Best-fit Bottom: -6.301
  Best-fit Span: 114.5
  Best-fit Top: 108.2
WT-3 of K291A set
  Best-fit Bottom: 9.705
  Best-fit Span: 95.34
  Best-fit Top: 105
WT-3 of L290A set
  Best-fit Bottom: 0.5044
  Best-fit Span: 101.8
  Best-fit Top: 102.3
WT-3 of N276A set
  Bottom (best-fit): 9.705
  Span (best-fit): 95.34
  Top (best-fit): 105
WT-3 of P220A set
  Bottom (best-fit): 9.705
  Span (best-fit): 95.34
  Top (best-fit): 105
WT-3 of S279A set
  Best-fit Bottom: 5.269
  Best-fit Span: 95.18
  Best-fit Top: 100.5
WT-3 of W269A set
  Bottom (best-fit): 5.108
  Span (best-fit): 89.16
  Top (best-fit): 94.27
WT-3 of Y302A set
  Best-fit Bottom: 5.269
  Best-fit Span: 95.18
  Best-fit Top: 100.5
[1]
  Span (best-fit value): 89.16 and 95.18 and 102.3 and 73.55 and 108.3
  Top (best-fit value): 94.27 and 100.5 and 105.4 and 94.83 and 106.4
[2]
  Span (best-fit value): 114.5 and 95.18 and 103.8 and 101.1
  Top (best-fit value): 108.2 and 100.5 and 107.6 and 103.8 and 95.77
[3]
  Span (best-fit value): 114.5 and 89.16 and 108 and 95.34 and 149.7
  Top (best-fit value): 108.2 and 94.27 and 109.2 and 105 and 143.2 and 106.4
cAMP inhibition, SSTR2-WT, run 1
  Top (best-fit): 101.1
cAMP inhibition, SSTR2-WT, run 2
  Top (best-fit): 101.1
cAMP inhibition, SSTR2-WT, run 3
  Top (best-fit): 96.66
cAMP inhibition, SSTR2-WT, run 4
  Top (best-fit): 105.3
[4]
  Best-fit Top, cAMP inhibition: 94.27 and 103.3 and 100.5 and 96 and 105 and 108.2
  Span, cAMP inhibition: 89.16 and 99.34 and 96.76 and 114.5
[5]
  Best-fit Top, cAMP inhibition: 103.8 and 107.6 and 101.1 and 105.4 and 106.4
  Span, cAMP inhibition: 101.1 and 103.8 and 99.15 and 102.3 and 108.3
[6]
  Best-fit Top, cAMP inhibition: 103.8 and 101.3 and 105 and 107.6 and 103.3
  Span, cAMP inhibition: 101.1 and 101 and 103.8 and 99.34
